Laboratory results from US20230192646A1, “DIHYDRO-CYCLOPENTA-ISOQUINOLINE DERIVATIVES” (UCB Biopharma SRL, priority 2019, published 2023).

Target: T1, IgE-Tb / FcεR1α-Y131A-AF488 (soluble IgE receptor FcεR1α with a Y131A mutation) (Homo sapiens, UniProt P0DOX4, C225A/N265Q/N371Q)
T1 construct: 86 nmoles of IgE-Fc(N265Q, N371Q) (Young et al., 1995)
Assay: In vitro FRET assay of IgE-Tb binding to FcεR1α-Y131A-AF488, 2 hours incubation (examples 16 and 89)
Conditions: 5 nM IgE-Tb, 25 nM FcεR1α-Y131A-AF488; 2 hours at room temperature; read-out: FRET IC50 range
Method: 86 nmoles of IgE-Fc(N265Q, N371Q) (Young et al., 1995) at 172 μM in 100 mM NaHCO3, pH 9.5 was added to 1 mg of LanthaScreen™ Amine Reactive Tb Chelate (ThermoFisher catalogue number PV3583) and incubated for 16 hours at 20° C. The material was then buffer exchanged into Phosphate Buffered Saline (being, 137 mM NaCl, 2.7 mM KCl, 10 mM Na2HPO4, 1.8 mM K2HPO4, pH 7.4) and the material quantified and the degree of Tb conjugation determined by measuring the absorption at 280 nm and 343 nm.
400 nmoles FcεR1α (Y131A mutant) (Cook et al., 1997) at 400 μM in 100 mM NaOAc pH 5.5 was reacted with 1 mM final concentration sodium periodate (in 100 mM NaOAc, pH 5.5) for 60 minutes at 22° C. […]
175 nmoles of protein was added to 1 mg of Alexa Fluor™ 488 hydrazide (Invitrogen) and incubated for 16 hours at 22° C. […] The protein was buffer exchanged into Phosphate Buffered Saline (being, 137 mM NaCl, 2.7 mM KCl, 10 mM Na2HPO4, 1.8 mM K2HPO4, pH 7.4) and the material quantified and the degree of Alexa Fluor™ 488 conjugation determined by measuring the absorption at 280 nm and 495 nm.
The aim was to measure binding of IgE-Tb to receptor, and the inhibition thereof by compounds, using an in vitro Fluorescence Resonance Energy Transfer (FRET) Assay. […]
Measurement of FRET for each well was carried out by exciting at 330 nm and measuring emission at 495/520 nm using an Envision plate reader (Perkin Elmer). […]

T1 sequence (P0DOX4 224-547 C225A/N265Q/N371Q): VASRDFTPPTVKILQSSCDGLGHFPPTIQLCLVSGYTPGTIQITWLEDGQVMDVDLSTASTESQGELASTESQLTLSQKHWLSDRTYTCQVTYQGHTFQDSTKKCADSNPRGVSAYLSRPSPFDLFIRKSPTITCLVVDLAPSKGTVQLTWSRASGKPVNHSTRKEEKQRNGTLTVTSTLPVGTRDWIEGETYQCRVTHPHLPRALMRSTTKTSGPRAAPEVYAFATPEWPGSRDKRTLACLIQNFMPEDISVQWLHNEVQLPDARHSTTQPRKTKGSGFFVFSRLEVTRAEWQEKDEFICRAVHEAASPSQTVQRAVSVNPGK

## CC(C)(F)CNS(=O)(=O)c1cc2c(c3cnc(C4CC4)cc13)C(N)CC2NC(=O)c1cccnc1 (centres unmarked) [Example 89, N-[9-amino-3-cyclopropyl-5-[(2-fluoro-2-methylpropyl)sulfamoyl]-8,9-dihydro-7H-cyclopenta[h]isoquinolin-7-yl]pyridine-3-carboxamide]
  IC50: 0.1 to 2 µM

## CCNC(=O)N[C@H]1C[C@H](O)c2cc(S(=O)(=O)NCC(C)C)c3cc(C4CC4)ncc3c21 (racemic) [Example 16, 1-ethyl-3-[trans-(7RS,9RS)-3-cyclopropyl-7-hydroxy-5-(2-methylpropylsulfamoyl)-8,9-dihydro-7H-cyclopenta[h]isoquinolin-9-yl]urea]
  IC50: 0.1 to 2 µM
